Test results taken from patent US20020119506A1, “Genes encoding UMP kinase, methods for purifying UMP kinase and methods of characterizing UMP kinase” (INSTITUT PASTEUR, priority 2000, published 2002).
“Also recorded” adds a separate entry of the source. Read-outs that look alike come from different tables or passages of the source.

Key:
[1] = target: T1, UMP kinase from B. subtilis (Bacillus subtilis, UniProt O31749); assay: UMP kinase activity, coupled spectrophotometric assay; type: biochemical
T1 sequence (O31749 1-240): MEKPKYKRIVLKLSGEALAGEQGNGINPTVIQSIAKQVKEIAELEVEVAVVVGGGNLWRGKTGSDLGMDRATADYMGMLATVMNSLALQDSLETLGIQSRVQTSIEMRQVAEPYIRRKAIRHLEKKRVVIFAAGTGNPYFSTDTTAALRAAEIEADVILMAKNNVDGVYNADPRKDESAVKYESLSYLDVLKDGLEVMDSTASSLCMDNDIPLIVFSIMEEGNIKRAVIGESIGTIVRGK
Procedure: Purification of UMP kinase and activity assays. E. coli overproducing the UMP kinase from B. subtilis was disrupted by sonication in 50 mM Tris-HCl (pH 7.4) and 2 mM UTP. The bacterial extract was heated for 10 min at 65° C., then the precipitated proteins were removed by centrifugation at 10,000 g for 30 min. The supernatant was concentrated by ultrafiltration to about 10 mg of protein/ml, then applied to a Sephacryl S-300 HR column (2.5×110 cm) equilibrated with 50 mM Tris-HCl (pH 7.4), 0.1 M NaCl and 2 mM UTP at a flow rate of 10 ml/h. […] Fractions of 1 ml of protein solution were sampled in Eppendorf tubes and stored at different temperatures between 20° C. and −80° C. The UMP kinase activity was determined at 30° C. using a coupled spectrophotometric assay (0.5 ml final volume) on an Eppendorf PCP6121 photometer [Blondin, 1994 #977]. The “standard” reaction medium contained 50 mM Tris-HCl (pH 7.4), 50 mM KCl, 2 mM MgCl2, 1 mM phosphoenolpyruvate, 0.2 mM NADH, 2 mM ATP, 0.5 mM GTP and 2 units each of lactate dehydrogenase, pyruvate kinase and NDP kinase. The crude or pure preparation of UMP kinase was then added, followed two minutes later by 1.3 mM UMP. The decrease in absorbance at 334 nm (between 0.03 and 0.3/min) was then recorded and corrected for secondary reactions, occurring in the absence of UMP. One unit of UMP kinase corresponds to 1 μmol of product formed per min.
The UMP kinase activity was determined at 30° C. using a coupled spectrophotometric assay (0.5 ml final volume) on an Eppendorf PCP6121 photometer. The “standard” reaction medium contained 50 mM Tris-HCl (pH 7.4), 50 mM KCl, 2 mM MgCl2, 1 mM phosphoenolpyruvate, 0.2 mM NADH, 1 or 2 mM ATP, 0.5 mM GTP and 2 units each of lactate dehydrogenase, pyruvate kinase and NDP kinase. The pure preparation of UMP kinase was then added, followed by 0.3 or 1 mM UMP. The decrease in absorbance at 334 nm (between 0.03 and 0.3/min) was then recorded and corrected for secondary reactions occurring in the absence of UMP. One unit of UMP kinase corresponds to 1 μmol of product formed per min.

[2] = target: T1, UMP kinase from B. subtilis; conditions: for stabilization of UMP kinase activity on storage (in words): crude bacterial extract, UTP ≧2 mM, ATP and GTP 2 mM each, various temperatures
[3] = target: T1, UMP kinase from B. subtilis; assay: Thermal stability of UMP kinase (FIG. 1)
Procedure: UMP kinase from B. subtilis overproduced in strain BL21 (DE3)/pDIA17 (over 30% of total E. coli proteins) was recovered in the supernatant after cell breakage in 50 mM Tris-HCl (pH 7.4) and centrifugation. The activity of recombinant UMP kinase declined rapidly upon storage at either room temperature, +4° C. or under frozen state. After 24 h, only 15% of initial UMP kinase activity was recovered. EDTA, thiols, bovine serum albumin, or antiprotease compounds alone or in mixture were ineffective. […] UTP increased the thermal stability of bacterial UMP kinase (FIG. 1), the half maximal inactivation being shifted from 42° C. in the absence of UTP to over 70° C. in the presence of nucleotide.

[4] = target: T2, UMP kinase from M. tuberculosis (Mycobacterium tuberculosis, UniProt P9WHK5); conditions: in the presence of UTP
[5] = target: T2, UMP kinase from M. tuberculosis; type: biochemical
[6] = target: UMP kinase from H. influenzae (Haemophilus influenzae, UniProt P43890); assay: UMP kinase activity, coupled spectrophotometric assay; type: biochemical
Procedure: The UMP kinase activity was determined at 30° C. using a coupled spectrophotometric assay (0.5 ml final volume) on an Eppendorf PCP6121 photometer. The “standard” reaction medium contained 50 mM Tris-HCl (pH 7.4), 50 mM KCl, 2 mM MgCl2, 1 mM phosphoenolpyruvate, 0.2 mM NADH, 1 or 2 mM ATP, 0.5 mM GTP and 2 units each of lactate dehydrogenase, pyruvate kinase and NDP kinase. The pure preparation of UMP kinase was then added, followed by 0.3 or 1 mM UMP. The decrease in absorbance at 334 nm (between 0.03 and 0.3/min) was then recorded and corrected for secondary reactions occurring in the absence of UMP. One unit of UMP kinase corresponds to 1 μmol of product formed per min. The specific activities of the recombinant enzymes are the following: […]

E. coli UMP kinase [7] = target: E. coli UMP kinase (Escherichia coli, UniProt P0A7E9); conditions: cited from earlier work
E. coli UMP kinase [8] = target: T3, E. coli UMP kinase (Escherichia coli, UniProt P0A7E9); assay: UMP kinase activity and activation by guanine nucleotides (comparison enzyme); type: biochemical; conditions: under identical conditions (presence of GTP)
T3 sequence (P0A7E9 whole entry, looked up): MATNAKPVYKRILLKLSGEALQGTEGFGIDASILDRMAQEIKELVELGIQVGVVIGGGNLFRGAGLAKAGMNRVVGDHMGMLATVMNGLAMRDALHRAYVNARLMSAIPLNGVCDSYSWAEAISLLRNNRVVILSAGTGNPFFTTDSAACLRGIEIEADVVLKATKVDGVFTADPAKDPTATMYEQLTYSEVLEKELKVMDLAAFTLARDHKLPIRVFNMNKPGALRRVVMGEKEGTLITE

UMP kinase from H. influenzae, sequence (P43890 whole entry): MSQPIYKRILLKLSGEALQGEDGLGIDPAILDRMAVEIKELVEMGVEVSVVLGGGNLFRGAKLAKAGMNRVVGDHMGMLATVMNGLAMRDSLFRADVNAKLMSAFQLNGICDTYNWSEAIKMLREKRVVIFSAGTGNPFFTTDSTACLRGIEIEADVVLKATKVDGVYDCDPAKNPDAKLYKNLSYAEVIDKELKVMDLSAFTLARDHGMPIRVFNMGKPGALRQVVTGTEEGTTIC
T2 sequence (P9WHK5 whole entry): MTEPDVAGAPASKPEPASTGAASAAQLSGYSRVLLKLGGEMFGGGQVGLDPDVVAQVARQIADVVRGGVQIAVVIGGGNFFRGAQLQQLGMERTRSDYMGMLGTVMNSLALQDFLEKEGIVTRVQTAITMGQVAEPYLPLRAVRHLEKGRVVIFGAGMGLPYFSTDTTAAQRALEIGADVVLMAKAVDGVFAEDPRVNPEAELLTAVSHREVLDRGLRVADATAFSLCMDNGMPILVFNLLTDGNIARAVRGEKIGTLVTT

Question: With `O=c1ccn([C@@H]2O[C@H](COP(=O)(O)OP(=O)(O)OP(=O)(O)O)[C@@H](O)[C@H]2O)c(=O)[nH]1` [UTP] as the molecule, how does the “effect of UTP on UMP kinase activity (in words)” value [1] read?
Answer: Its value is “antagonized the effect of GTP; also recorded: inhibits”.

Question: And the IC50 ([1]; at lower concentration of UMP (50 μM), read-out: I50 of UTP inhibition)?
Answer: Its IC50 is 50 µM.

Question: And the Km ([1]; presence of GTP, ATP 1 mM, without inhibition by excess of UMP, read-out: apparent Km for UTP)?
Answer: Its Km is 30 µM.

Question: What about the “stabilization of UMP kinase activity on storage (in words)” value (shortened to “stabilization of UMP kinase activity”) [2] of the same molecule?
Answer: The value was “stabilized considerably”.

Question: What about the “half maximal inactivation temperature” value ([3]; in the presence of UTP) of the same molecule?
Answer: Its value is “over 70 °C”.

Question: And the Tm [4]?
Answer: The Tm was 67 °C.

Question: For `O=c1ccn([C@@H]2O[C@H](COP(=O)(O)O)[C@@H](O)[C@H]2O)c(=O)[nH]1` [UMP], which “UMP concentration at which rates were maximal” value ([1]; absence of GTP, ATP 1 mM, rates decline at higher UMP) is on record?
Answer: Its value is 50 to 70 µM.

Question: What about the Km ([1]; absence of GTP, ATP constant (1 mM), read-out: Km for UMP) of the same molecule?
Answer: The Km was roughly 8 µM.

Question: And the “UMP concentration at which saturation was attained” value ([1]; presence of GTP, ATP 1 mM)?
Answer: The value was 0.2 mM.

Question: With “bovine serum albumin: protein additive tested as stabilizer” as the molecule, how does the “stabilization of UMP kinase activity” value [2] read?
Answer: The value was “ineffective”.

Question: Which “activation of UMP kinase by guanine nucleotides (in words)” value [1] does the source give for `Nc1nc2c(ncn2[C@@H]2O[C@H](COP(=O)(O)OP(=O)(O)NP(=O)(O)O)[C@@H](O)[C@H]2O)c(=O)[nH]1` [GMP-PNP] here?
Answer: Its value is “can activate at significant rates”.

Question: For `Nc1nc2c(ncn2[C@@H]2O[C@H](COP(=O)(O)OP(=O)(O)OP(=O)(O)O)[C@@H](O)[C@H]2O)c(=O)[nH]1` [GTP], which “activation of UMP kinase (fold)” value ([1]; 2 mM ATP and 1 mM UTP) is on record?
Answer: Its value is “ten fold activation”.

Question: And the EC50 ([1]; 2 mM ATP and 1 mM UTP, read-out: half maximum activation concentration)?
Answer: Its EC50 is 100 µM.

Question: And the “activity of UMP kinase in the absence of GTP relative to presence” value ([1]; absence of GTP)?
Answer: Its value is “twenty times lower”.

Question: What about the “degree of activation by GTP (factor)” value [5] of the same molecule?
Answer: Its value is 2.

Question: What about the “degree of activation by GTP (factor)” value [6] of the same molecule?
Answer: Its value is 3.

Question: For `Nc1ncnc2c1ncn2[C@@H]1O[C@H](COP(=O)(O)OP(=O)(O)OP(=O)(O)O)[C@@H](O)[C@H]1O` [ATP], which Km ([1]; ATP varied, absence or presence of GTP (0.5 mM), UMP 1 mM, read-out: apparent Km for ATP) is on record?
Answer: The Km was 900 µM.

Question: What does the source list for `Nc1nc2c(ncn2[C@@H]2O[C@H](COP(=O)(O)O)[C@@H](O)[C@H]2O)c(=O)[nH]1` [GMP]?
Answer: activation of UMP kinase by guanine nucleotides (in words) [1]: totally ineffective; also recorded: insensitive; activation of E. coli UMP kinase (in words) (E. coli UMP kinase [7]): significant activation; also recorded: activated

Question: For `Nc1nc2c(ncn2[C@H]2C[C@H](O)[C@@H](COP(=O)(O)OP(=O)(O)OP(=O)(O)O)O2)c(=O)[nH]1` [dGTP], which “activation of UMP kinase by guanine nucleotides (in words)” value [1] is on record?
Answer: Its value is “effective but with lower affinities and extent of activation; also recorded: can activate at significant rates”.

Question: For `Nc1ncnc2c1ncn2[C@H]1C[C@H](O)[C@@H](COP(=O)(O)OP(=O)(O)OP(=O)(O)O)O1` [dATP], which phosphate donor ability ([1]; compared with ATP) is on record?
Answer: Its phosphate donor ability is “as good as ATP as phosphate donor”.

Question: Which results are given for `Nc1nc2c(ncn2[C@@H]2O[C@@H]3COP(=O)(O)O[C@H]3[C@H]2O)c(=O)[nH]1` [cGMP]?
Answer: best activator (in words) [6]: highest activation and affinity; nucleotide concentration at which maximal activation is attained [6]: 20 µM; activation of E. coli UMP kinase (in words) (E. coli UMP kinase [7]): significant activation

Question: For `O=C(O)CN(CCN(CC(=O)O)CC(=O)O)CC(=O)O` [EDTA], which “stabilization of UMP kinase activity” value [2] is on record?
Answer: The value was “ineffective”.

Question: Which “activation of E. coli UMP kinase (in words)” value (E. coli UMP kinase [7]) does the source give for `Nc1nc2c(ncn2[C@@H]2O[C@H](CO)[C@@H](O)[C@H]2O)c(=O)[nH]1` [guanosine] here?
Answer: The value was “significant activation”.

B1: UMP kinase from B. subtilis: recombinant pyrH gene product of B. subtilis overproduced in E. coli, hexamer (protein)
chain: T1 sequence (O31749 1-240)
Question: For B1, which “specific activity of the recombinant enzyme” value ([1]; 2 mM ATP, 1 mM UMP) is on record?
Answer: The value was 25 units/mg of protein.

Question: And the “specific activity of purified recombinant protein” value ([1]; "standard" assay conditions)?
Answer: The value was 26 U/mg of protein.

Question: And the “specific activity of the purified enzyme” value ([1]; in the presence of GTP)?
Answer: Its value is 25 μmol/min^−1/mg of protein^−1.

Question: What about the “initial UMP kinase activity recovered after storage” value ([2]; after 24 h, crude extract without UTP, room temperature, +4° C. or frozen) of the same molecule?
Answer: Its value is 15%.

Question: What about the “stability in the absence of UTP (in words)” value ([2]; irrespective of storage temperature (+4° C., −20° C. or −80° C.)) of the same molecule?
Answer: The value was “unstable in the absence of the nucleotide”.

Question: And the “half maximal inactivation temperature” value ([3]; in the absence of UTP)?
Answer: The value was 42 °C.

B2: UMP kinase from E. coli: comparison enzyme, bacterial UMP kinase from E. coli (protein, UniProt P0A7E9 2-241, looked up)
Uridylate kinase: ATNAKPVYKRILLKLSGEALQGTEGFGIDASILDRMAQEIKELVELGIQVGVVIGGGNLFRGAGLAKAGMNRVVGDHMGMLATVMNGLAMRDALHRAYVNARLMSAIPLNGVCDSYSWAEAISLLRNNRVVILSAGTGNPFFTTDSAACLRGIEIEADVVLKATKVDGVFTADPAKDPTATMYEQLTYSEVLEKELKVMDLAAFTLARDHKLPIRVFNMNKPGALRRVVMGEKEGTLITE
Question: For B2, which specific activity (E. coli UMP kinase [8]) is on record?
Answer: Its specific activity is 150 μmol/min^−1/mg of protein^−1.
